Data on 30 molecules can be found in patent publication US20230151342A1, “ZINC FINGER DEGRADATION DOMAINS” (THE BROAD INSTITUTE, INC, priority 2020, published 2023).

Like-named read-outs stand apart in the source and are kept apart here. Where no end group is shown, it is not given here.

In assay [1] the test system is Jurkat cells expressing individual zinc fingers in the protein degradation reporter. In words: Validation of individual zinc fingers in eGFP/mCherry protein degradation reporter (single reporter degradation experiments). It counts as cell-based. The method, then: FIG. 18A-18B Validation of individual hybrid zinc finger degrons. (FIG. 18A) Vehicle control-normalized eGFP/mCherry fluorescence ratios measured by flow cytometry for Jurkat cells expressing the indicated minimal 23 amino acid zinc finger degron constructs after treatment with pomalidomide or vehicle control. Experiments were performed in triplicate and error bars indicate standard deviation. […] (FIG. 18B) IC50 values for lenalidomide- or pomalidomide-induced degradation of endogenous and hybrid zinc fingers calculated from single reporter degradation experiments. (FIG. 18C) Jurkat cells expressing the 19BBz-d91.3 CAR were treated overnight with lenalidomide and the E1 inhibitor MLN7243 (500 nM), the Neddylation inhibitor […] (5000 nM), the lysosomal acidification inhibitor Chloroquine (50,000 nM), or the lysosomal acidification inhibitor Bafilomycin A (100 nM). CAR degradation requires ubiquitin ligase and Cullin-RING ligase function, and is insensitive to inhibition of autophagy.
FIG. 23. Validation of individual hybrid zinc finger degrons. Individual 23 amino acid zinc finger domains were cloned into the Cilantro 2 protein degradation reporter lentivector. Jurkat cells were transduced with each of these viruses. The GFP/mCherry ratio was calculated in the presence of various thalidomide analogs, indicative of drug-dependent degradation. Dark Gray=hybrid zinc fingers. Light Gray=endogenous zinc fingers. Dotted line=ZFP91-IKZF3.
Jurkat cells were created expressing each of the 6 hybrid and 8 associated parent ZFs and subjected them to a range of doses of lenalidomide, pomalidomide, avadomide, and iberdomide. […] The IC50 for degradation was lower for the 6 hybrid ZFs than their parent ZFs (FIG. 18B). […] One of these validated hybrids, ZFP91-IKZF3, was chosen with 1.6-6.0-times lower IC50 for degradation than IKZF3 across the tested thalidomide derivatives (FIG. 11G) hereafter termed “d91.3”, as a super degron tag for further CAR engineering, which was incorporated for evaluation of on and off-switch CARs.
Jurkat cells expressing a library of 440 C2H2 zinc fingers in a eGFP/mCherry protein degradation reporter vector were treated with DMSO or thalidomide analog drug for 16 hours. mCherry^+eGFP^low cell populations were isolated by FACS in triplicate, and the relative frequency of individual ZFs was quantified with next-generation sequencing. For validation, Jurkat cells were engineered to express individual zinc fingers in the protein degradation reporter; the eGFP:mCherry ratio was determined by flow cytometry after 16 hour incubation with varying concentrations of thalidomide analogs.

Assay [2] deals with CRBN (substrate receptor of the CRL4^CRBN E3 ubiquitin ligase) (UniProt Q96SW2 1-442). In words: cell-based or functional assay.
Sequence of CRBN (substrate receptor of the CRL4^CRBN E3 ubiquitin ligase) (Q96SW2 whole entry): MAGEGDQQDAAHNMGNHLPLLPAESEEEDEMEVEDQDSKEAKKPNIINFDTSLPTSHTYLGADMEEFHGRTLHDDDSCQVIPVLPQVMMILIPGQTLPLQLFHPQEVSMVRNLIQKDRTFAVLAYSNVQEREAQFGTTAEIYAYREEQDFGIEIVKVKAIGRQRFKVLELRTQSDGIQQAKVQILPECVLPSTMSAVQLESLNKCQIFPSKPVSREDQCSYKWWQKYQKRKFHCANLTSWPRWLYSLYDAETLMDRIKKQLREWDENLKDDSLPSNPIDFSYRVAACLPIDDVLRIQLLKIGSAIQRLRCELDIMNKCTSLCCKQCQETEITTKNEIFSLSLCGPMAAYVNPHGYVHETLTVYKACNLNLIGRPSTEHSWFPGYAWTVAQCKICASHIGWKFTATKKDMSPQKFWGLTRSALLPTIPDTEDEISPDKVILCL
Setting [3] is: CC-122-induced degradation, eGFP:mCherry ratio, 16 hour incubation, read-out: EC50 cc122.
The mark [4] stands for this setting: lenalidomide-induced degradation, eGFP:mCherry ratio, 16 hour incubation, read-out: EC50 len.
Where [5] appears, read: pomalidomide-induced degradation, eGFP:mCherry ratio, 16 hour incubation, read-out: EC50 pom.
The mark [6] stands for this setting: lenalidomide, repeat experiment, read-out: EC50 len repeat.

For “FACVICGRKFRNRGLMQKHLKNH [HZnF_11, reference compound]”, the results for the concentration giving a half-maximal response (EC50) in assay [1] (setting [3]), in assay [1] (setting [4]) and in assay [1] (setting [5]) were 179 nM, 59.9 nM and 18.8 nM, respectively.

As to “FQCNQCGASFTQKGNLLRHIKLH [HZnF_27, reference compound]”, the EC50 (in general, the midpoint of the concentration-response curve) was found to be 33.5 nM in assay [1] (setting [3]), 28.2 nM in assay [1] (setting [6]), 21.9 nM in assay [1] (setting [4]) and 3.1 nM in assay [1] (setting [5]).

For the molecule FQCNQCGASFTQPKSLARHLRLH [HZnF_20], the half-maximal effective concentration (EC50) was determined as 5.22 nM in assay [1] (setting [3]), 6.09 nM in assay [1] (setting [6]), 4.59 nM in assay [1] (setting [4]) and 1.05 nM in assay [1] (setting [5]).

With FQCNQCGASFTRHSHLIEHLKRH [HZnF_10], the figures for the EC50 in assay [1] (setting [3]), in assay [1] (setting [4]) and in assay [1] (setting [5]) were 32.4 nM, 55.4 nM and 9.05 nM, respectively.

Turning to FQCNQCGASFTRLSTLIQHQKVH [HZnF_06], the EC50 in assay [1] (setting [3]) was 56.1 nM; in assay [1] (setting [4]), 433 nM; in assay [1] (setting [5]) it was 21.9 nM.

On to FQCNQCGASFTTKGSLIRHHRRH [HZnF_08], for which the EC50 in assay [1] (setting [3]) was 10.1 nM; in assay [1] (setting [4]) it was 18.3 nM; in assay [1] (setting [5]) it was 3.61 nM.

Turning to FQCPICGLVIKRHSHLIEHLKRH [HZnF_21], the 50% effective concentration (EC50) turned out to be 2.46 nM in assay [1] (setting [3]), 8.23 nM in assay [1] (setting [6]), 11.2 nM in assay [1] (setting [4]) and 0.311 nM in assay [1] (setting [5]).

With “FQCPICGLVIKRKSYWKRHMVIH [HZnF_16, reference compound]”, the figures for the EC50 in assay [1] (setting [3]), in assay [1] (setting [4]) and in assay [1] (setting [5]) were 50.2 nM, 60.5 nM and 8.06 nM, respectively.

Take “FVCPRCGRGFSQPKSLARHLRLH [HZnF_05, reference compound]”: the values for the concentration for a half-maximal effect (EC50) in assay [1] (setting [3]), in assay [1] (setting [4]) and in assay [1] (setting [5]) were 2.93 nM, 48 nM and 8.55 nM, respectively.

Turning to “HECKLCGASFRTKGSLIRHHRRH [HZnF_07, reference compound]”, the figures for the EC50 in assay [1] (setting [3]), in assay [1] (setting [4]) and in assay [1] (setting [5]) were 58.5 nM, 34.8 nM and 11.3 nM, respectively.

On to “LQCEICGFTCRQKASLNWHMKKH [HZnF_13, reference compound]”, for which the half-maximal effective concentration (EC50) worked out at 33 nM in assay [1] (setting [3]), 57.8 nM in assay [1] (setting [4]) and 5.47 nM in assay [1] (setting [5]).

Regarding “LQCEICGFTCRQKGNLLRHIKLH (FHCNQCGASFTQKGNLLRHIKLH) [HZnF_26]”, the EC50 was 13.4 nM in assay [1] (setting [3]), 29.4 nM in assay [1] (setting [6]), 22.9 nM in assay [1] (setting [4]) and 0.78 nM in assay [1] (setting [5]).

For LQCEICGFTCRQPKSLARHLRLH [HZnF_23], the EC50 in assay [1] (setting [3]) turned out to be 0.983 nM; in assay [1] (setting [6]), 4.66 nM; in assay [1] (setting [4]) it was 6.45 nM; in assay [1] (setting [5]), 0.146 nM.

Take LQCEICGFTCRRHSHLIEHLKRH [HZnF_17]: the EC50 was 73.4 nM in assay [1] (setting [3]), 149 nM in assay [1] (setting [4]) and 5.29 nM in assay [1] (setting [5]).

Consider LQCEICGFTCRWSSHYQYHLRQH [HZnF_04], for which the figures for the concentration for a half-maximal effect (EC50) in assay [1] (setting [3]), in assay [1] (setting [4]) and in assay [1] (setting [5]) were 101 nM, 324 nM and 14.1 nM, respectively.

Regarding LQCEICGYQCRQPKSLARHLRLH [HZnF_22], the EC50 in assay [1] (setting [3]) is 2.42 nM; in assay [1] (setting [6]), 6.59 nM; in assay [1] (setting [4]) it was 12.2 nM; in assay [1] (setting [5]), 0.212 nM.

Consider “LQCEICGYQCRQRASLNWHMKKH [HZnF_12, reference compound]”, for which the 50% effective concentration (EC50) in assay [1] (setting [3]) is 37 nM; in assay [1] (setting [4]), 75.1 nM.

Regarding LQCEICGYQCRRKDRMSYHVRSH [HZnF_25], the figures for the EC50 in assay [1] (setting [3]), in assay [1] (setting [6]) and in assay [1] (setting [4]) were 0.693 nM, 3.53 nM and 6.64 nM, respectively. Also, in assay [1] (pomalidomide), the “pomalidomide-dependent degradation compared with parent ZF” value is recorded as “more efficient pomalidomide-dependent degradation than either parent ZF”.

“LQCEICGYQCRRLSTLIQHQKVH [HZnF_1, label misprinted]”: the concentration for a half-maximal effect (EC50) in assay [1] (setting [3]) is 7.07 nM; in assay [1] (setting [4]) it was 22.5 nM; in assay [1] (setting [5]) it was 1.86 nM.

Turning to LQCEVCGFQCRQPKSLARHLRLH [HZnF_24], the concentration for a half-maximal effect (EC50) worked out at 5.67 nM in assay [1] (setting [3]), 15 nM in assay [1] (setting [6]), 10.1 nM in assay [1] (setting [4]) and 0.46 nM in assay [1] (setting [5]).

In the case of “LQCEVCGFQCRQRASLKYHMTKH [HZnF_01, reference compound]”, the concentration giving a half-maximal response (EC50) in assay [1] (setting [3]) was 73.6 nM; in assay [1] (setting [4]) it was 78.6 nM; in assay [1] (setting [5]), 7.41 nM.

On to “YGCNECGKNFGRHSHLIEHLKRH [HZnF_09, reference compound]”, for which the EC50 in assay [1] (setting [3]) worked out at 68.2 nM; in assay [1] (setting [5]) it was 0.224 nM.

Turning to YQCKVCGRAFKQKGNLLRHIKLH [HZnF_14], the values for the EC50 in assay [1] (setting [3]), in assay [1] (setting [4]) and in assay [1] (setting [5]) were 26 nM, 83.1 nM and 5.19 nM, respectively.

For the molecule YQCKVCGRAFKRLSTLIQHQKVH [HZnF_15], the EC50 in assay [1] (setting [3]) came to 35.2 nM; in assay [1] (setting [4]) it was 71.9 nM; in assay [1] (setting [5]) it was 5.12 nM.

In the case of “YQCKVCGRAFKRVSHLTVHYRIH [8HZnF__19, label misprinted, reference compound]”, the figures for the EC50 in assay [1] (setting [3]), in assay [1] (setting [4]) and in assay [1] (setting [5]) were 125 nM, 248 nM and 16.9 nM, respectively.

For “YRCRACGRACSRLSTLIQHQKVH [HZnF_03, reference compound]”, the 50% effective concentration (EC50) amounted to 29.5 nM in assay [1] (setting [3]), 55.2 nM in assay [1] (setting [4]) and 4.47 nM in assay [1] (setting [5]).

Turning to “YSCPVCGLRFKRKDRMSYHVRSH [HZnF_02, reference compound]”, the concentration giving a half-maximal response (EC50) in assay [1] (setting [3]) is 176 nM; in assay [1] (setting [4]), 100 nM.

Turning to LQCEICGYQCRRKDRMSYHVRSH (not fully specified; cysteine pairing not given here) [ZN653_556_578-PATZ1_383_405_J1], in assay [2], the “EC50 pom: pomalidomide-induced degradation, eGFP/mCherry reporter, Jurkat” value (“EC50 pom … eGFP/mCherry reporter, Jurkat” for short) stood at 0.16 nM.

Take LQCEICGYQCRQRASLNWHMKKH (not fully specified; cysteine pairing not given here) [ZN653_556_578-ZN653_556_578_J1]: the “EC50 pom … eGFP/mCherry reporter, Jurkat” value in assay [2] was determined as 5.17 nM.

As to YSCPVCGLRFKRKDRMSYHVRSH (not fully specified; cysteine pairing not given here) [PATZ1_383_405-PATZ1_383_405_J1], the “EC50 pom … eGFP/mCherry reporter, Jurkat” value in assay [2] stood at 32.4 nM.
